Assay results: patent US20180368410A1, “MICROBIOCIDAL OXADIAZOLE DERIVATIVES” (SYNGENTA PARTICIPATIONS AG, priority 2015, published 2018)

Tests used:
[1] = system: Puccinia recondita f. Sp. Tritici; experiment: Puccinia recondita f. sp. tritici / wheat / leaf disc preventative (brown rust); assay type: in vivo, Puccinia recondita f. sp. tritici on wheat cv. Kanzler; details: foliar, 200 ppm in the applied formulation, inoculated 1 day after application, assessed 7 to 9 days after application, vs untreated control leaf disks, read-out: disease control
Method in brief: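 Wheat cv. Kanzler leaf segments on agar were sprayed with compound (DMSO stock diluted with 0.025% Tween20) 1 day before inoculation with spores. Segments were held at 19 °C, 75% rh, 12 h light/dark. Percent disease control versus untreated was scored 7–9 days after application.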

[2] = system: Puccinia recondita f. Sp. Triticil; experiment: Puccinia recondita f. sp. tritici / wheat / leaf disc curative (brown rust); assay type: in vivo, Puccinia recondita f. sp. tritici on wheat cv. Kanzler; details: foliar, 200 ppm in the applied formulation, applied 1 day after inoculation, assessed 6 to 8 days after application, vs untreated control leaf disks, read-out: disease control
Method in brief: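 Compound applied 1 day after spore inoculation of wheat cv. Kanzler leaf segments on agar (dark, 19 °C, 75% RH before treatment). After further incubation under 12 h light/12 h dark at 19 °C and 75% RH, disease control relative to untreated segments rated 6–8 days post-application.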

[3] = system: Phakopsora pachyrhizi; experiment: Phakopsora pachyrhizi / soybean / leaf disc preventative (Asian soybean rust); assay type: in vivo, Phakopsora pachyrhizi on soybean; details: foliar, 200 ppm in the applied formulation, inoculated one day after application, assessed 12 to 14 days after application, vs untreated control leaf disks, read-out: disease control
Method in brief: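 Read-out is percent disease control relative to untreated check discs, assessed once untreated discs show adequate disease, 12 to 14 days after application. Compounds, tested at 200 ppm in the applied formulation, are sprayed onto soybean leaf discs one day before inoculation with a spore suspension.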

[4] = system: Glomerella Lacenarium (Colletotrichum lacenarium); experiment: Glomerella lagenarium (Colletotrichum lagenarium) liquid culture / cucumber / preventative (anthracnose); assay type: cell-based; details: 20 ppm in the applied formulation, liquid culture in PDB, 24° C., inhibition of growth measured photometrically 3 to 4 days after application, vs untreated control, read-out: disease control
Method in brief: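 Photometric read-out of fungal growth 3 to 4 days after application, expressed as percent control relative to untreated wells. Plates held at 24 °C. Compound placed in DMSO before adding PDB broth seeded with conidia from cryogenic storage.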

[5] = system: Uromyces viciae-Fabael; experiment: Uromyces viciae-fabae / field bean / leaf disc preventative (faba-bean rust); assay type: in vivo, Uromyces viciae-fabae on field bean; details: foliar, 288 h, 100 ppm in the applied formulation, inoculated two hours after application, assessed 12 days after application, vs untreated control leaf discs, read-out: disease control
Procedure: Leaf disks or leaf segments of various plant species are cut from plants grown in a greenhouse. The cut leaf disks or segments are placed in multiwell plates (24-well format) onto water agar. The leaf disks are sprayed with a test solution before (preventative) or after (curative) inoculation. Compounds to be tested are prepared as DMSO solutions (max. 10 mg/ml) which are diluted to the appropriate concentration with 0.025% Tween20 just before spraying. The inoculated leaf disks or segments are incubated under defined conditions (temperature, relative humidity, light, etc.) according to the respective test system. A single evaluation of disease level is carried out 3 to 14 days after inoculation, depending on the pathosystem. Percent disease control relative to the untreated check leaf disks or segments is then calculated.
Field bean leaf discs are placed on water agar in multiwell plates (96-well format) and 10 μl of the formulated test compound diluted in acetone and a spreader pipetted onto the leaf disc. Two hours after application leaf discs are inoculated by spraying a spore suspension on the lower leaf surface. The leaf discs are incubated in a climate cabinet at 22° C. with 18 hour day and 70% relative humidity. The activity of a compound is assessed as percent disease control compared to untreated when an appropriate level of disease damage appears in untreated check leaf disks (12 days after application).
The following compounds at 100 ppm in the applied formulation give at least 80% disease control in this test when compared to untreated control leaf discs under the same conditions, which show extensive disease development.

Row | melting point [°C] | SMILES | pest or weed control at 200 ppm [1] [%] | pest or weed control at 200 ppm [2] [%] | pest or weed control at 200 ppm [3] [%] | inhibition of growth at 20 ppm [4] [%] | pest or weed control at 100 ppm [5] [%]
1 | 134 to 138 | CC1=NOC(C(=O)NCc2ccc(-c3noc(C(F)(F)F)n3)c(F)c2)C1 (centres unmarked) [Compound 1.60, N-[[3-fluoro-4-[5-(trifluoromethyl)-1,2,4-oxadiazol-3-yl]phenyl]methyl]-3-methyl-4,5-dihydroisoxazole-5-carboxamide] | ≥ 80 | ≥ 80 | ≥ 80 | ≥ 80 | 
2 | 80 to 86 | O=C(NCc1ccc(-c2noc(C(F)(F)F)n2)c(F)c1F)C1CCCO1 (centres unmarked) [Compound 1.80, N-[[2,3-difluoro-4-[5-(trifluoromethyl)-1,2,4-oxadiazol-3-yl]phenyl]methyl] tetrahydrofuran-2-carboxamide] | ≥ 80 | ≥ 80 | ≥ 80 | ≥ 80 | 
3 | 84 to 88 | O=C(NCc1ccc(-c2noc(C(F)(F)F)n2)nc1)C1CCCO1 (centres unmarked) [Compound 1.94, N-[[6-[5-(trifluoromethyl)-1,2,4-oxadiazol-3-yl]-3-pyridyl]methyl] tetrahydrofuran-2-carboxamide] |  | ≥ 80 |  |  | 
4 | 106 to 113 | O=C(NCc1ccc(-c2noc(C(F)(F)F)n2)nc1)c1ccccc1Cl [Compound 1.95, 2-chloro-N-[[6-[5-(trifluoromethyl)-1,2,4-oxadiazol-3-yl]-3-pyridyl]methyl] benzamide] | ≥ 80 |  |  |  | 
5 | 150 to 151.1 | O=C(NCCc1ccc(-c2noc(C(F)(F)F)n2)cc1)C1CC1 [Compound 1.96, N-[2-[4-[5-(trifluoromethyl)-1,2,4-oxadiazol-3-yl]phenyl]ethyl] cyclopropanecarboxamide] | ≥ 80 | ≥ 80 | ≥ 80 | ≥ 80 | 
6 | 68.7 to 70.5 | O=C(NCCc1ccc(-c2noc(C(F)(F)F)n2)cc1)C1CCCO1 (centres unmarked) [Compound 1.97, N-[2-[4-[5-(trifluoromethyl)-1,2,4-oxadiazol-3-yl]phenyl]ethyl] tetrahydrofuran-2-carboxamide] | ≥ 80 | ≥ 80 | ≥ 80 | ≥ 80 | 
7 | 133 to 140 | O=C(NCCc1ccc(-c2noc(C(F)(F)F)n2)cc1)c1ccccc1Cl [Compound 1.99, 2-chloro-N-[2-[4-[5-(trifluoromethyl)-1,2,4-oxadiazol-3-yl]phenyl]ethyl]benzamide] | ≥ 80 |  | ≥ 80 |  | 

The remaining lines, values behind:

Row | SMILES | melting point [°C] | pest or weed control at 200 ppm [1] [%] | pest or weed control at 200 ppm [2] [%] | pest or weed control at 200 ppm [3] [%] | inhibition of growth at 20 ppm [4] [%] | pest or weed control at 100 ppm [5] [%]
8 | COc1ccccc1C(=O)NCc1ccc(-c2noc(C(F)(F)F)n2)cc1 [Compound 1.6, 2-methoxy-N-[[4-[5-(trifluoromethyl)-1,2,4-oxadiazol-3-yl]phenyl]methyl]benzamide] |  | ≥ 80 | ≥ 80 | ≥ 80 | ≥ 80 | ≥ 80
9 | O=C(NCc1ccc(-c2noc(C(F)(F)F)n2)cc1)C1CCOC1 (centres unmarked) [Compound 1.18, N-[[4-[5-(trifluoromethyl)-1,2,4-oxadiazol-3-yl]phenyl]methyl] tetrahydrofuran-3-carboxamide] |  | ≥ 80 | ≥ 80 | ≥ 80 | ≥ 80 | ≥ 80
10 | Cc1cccc(C)c1C(=O)NCc1ccc(-c2noc(C(F)(F)F)n2)cc1 [Compound 1.19, 2,6-dimethyl-N-[[4-[5-(trifluoromethyl)-1,2,4-oxadiazol-3-yl]phenyl]methyl]benzamide] |  | ≥ 80 |  | ≥ 80 | ≥ 80 | ≥ 80
11 | O=C(Cc1ccccc1)NCc1ccc(-c2noc(C(F)(F)F)n2)cc1 [Compound 1.26, 2-phenyl-N-[[4-[5-(trifluoromethyl)-1,2,4-oxadiazol-3-yl]phenyl]methyl]acetamide] |  | ≥ 80 | ≥ 80 | ≥ 80 | ≥ 80 | ≥ 80
12 | O=C(NCc1ccc(-c2noc(C(F)(F)F)n2)cc1)C1CCSCC1 [Compound 1.27, N-[[4-[5-(trifluoromethyl)-1,2,4-oxadiazol-3-yl]phenyl]methyl] tetrahydrothiopyran-4-carboxamide] |  | ≥ 80 |  | ≥ 80 |  | ≥ 80
13 | O=C(Cc1ccc(Cl)cc1)NCc1ccc(-c2noc(C(F)(F)F)n2)cc1 [Compound 1.29, 2-(4-chlorophenyl)-N-[[4-[5-(trifluoromethyl)-1,2,4-oxadiazol-3-yl]phenyl]methyl]acetamide] |  | ≥ 80 |  | ≥ 80 |  | ≥ 80
14 | N#Cc1ccc(CC(=O)NCc2ccc(-c3noc(C(F)(F)F)n3)cc2)cc1 [Compound 1.30, 2-(4-cyanophenyl)-N-[[4-[5-(trifluoromethyl)-1,2,4-oxadiazol-3-yl]phenyl]methyl]acetamide] |  | ≥ 80 |  | ≥ 80 |  | ≥ 80
15 | O=C(CC1CC1(F)F)NCc1ccc(-c2noc(C(F)(F)F)n2)cc1 (centres unmarked) [Compound 1.32, 2-(2,2-difluorocyclopropyl)-N-[[4-[5-(trifluoromethyl)-1,2,4-oxadiazol-3-yl]phenyl]methyl]acetamide] |  | ≥ 80 | ≥ 80 | ≥ 80 | ≥ 80 | ≥ 80
16 | O=C(NCc1ccc(-c2noc(C(F)(F)F)n2)c(F)c1F)C1CC1 [Compound 1.55, N-[[2,3-difluoro-4-[5-(trifluoromethyl)-1,2,4-oxadiazol-3-yl]phenyl]methyl] cyclopropanecarboxamide] | 144 to 150 | ≥ 80 | ≥ 80 | ≥ 80 | ≥ 80 | 
17 | O=C(NCc1ccc(-c2noc(C(F)(F)F)n2)c(F)c1F)c1ccccc1Cl [Compound 1.56, 2-chloro-N-[[2,3-difluoro-4-[5-(trifluoromethyl)-1,2,4-oxadiazol-3-yl]phenyl]methyl] benzamide] | 144 to 150 | ≥ 80 |  | ≥ 80 | ≥ 80 | 
18 | O=C(NCc1ccc(-c2noc(C(F)(F)F)n2)c(F)c1)C1CC1 [Compound 1.57, N-[[3-fluoro-4-[5-(trifluoromethyl)-1,2,4-oxadiazol-3-yl]phenyl]methyl] cyclopropanecarboxamide] | 139 to 140 | ≥ 80 | ≥ 80 | ≥ 80 | ≥ 80 | 
19 | O=C(NCc1ccc(-c2noc(C(F)(F)F)n2)c(F)c1)c1ccccc1Cl [Compound 1.58, 2-chloro-N-[[3-fluoro-4-[5-(trifluoromethyl)-1,2,4-oxadiazol-3-yl]phenyl]methyl] benzamide] | 146 to 148 | ≥ 80 |  | ≥ 80 | ≥ 80 | 
20 | O=C(NCc1ccc(-c2noc(C(F)(F)F)n2)c(F)c1)C1CCCO1 (centres unmarked) [Compound 1.59, N-[[3-fluoro-4-[5-(trifluoromethyl)-1,2,4-oxadiazol-3-yl]phenyl]methyl] tetrahydrofuran-2-carboxamide] | 56 to 58 | ≥ 80 | ≥ 80 | ≥ 80 | ≥ 80 | 
